Experimental data reported in ChEMBL document CHEMBL5113393, “Discovery of 2-((2-methylbenzyl)thio)-6-oxo-4-(3,4,5-trimethoxyphenyl)-1,6-dihydropyrimidine-5-carbonitrile as a novel and effective bromodomain and extra-terminal (BET) inhibitor for the treatment of sepsis” (Eur J Med Chem, 2022).
Calls of active or inactive are those of the source. The calls are words filed in the database; no cut-off is given here.

What was measured:
[1] = target: T1, Bromodomain-containing protein 4 (Homo sapiens, UniProt O60885); assay: Inhibition of BRD4 BD1 (57 to 168 residues) (unknown origin) transfected in Escherichia coli (DE3) using FAM-labeled JQ-1 as fluorescent substrate at 100 uM incubated for 30 mins by competitive fluorescence polarization method relative to control
[2] = target: T1, Bromodomain-containing protein 4; assay: Inhibition of BRD4 BD2 (352 to 457 residues) (unknown origin) transfected in Escherichia coli (DE3) using FAM-labeled JQ-1 as fluorescent substrate at 100 uM incubated for 30 mins by competitive fluorescence polarization method relative to control
[3] = target: T1, Bromodomain-containing protein 4; assay: Inhibition of BRD4 BD1 (unknown origin) using FAM-labeled JQ-1 as fluorescent substrate assessed as inhibition constant incubated for 30 mins by competitive fluorescence polarization method
[4] = target: T1, Bromodomain-containing protein 4; assay: Binding affinity to His-tagged biotinylated BRD4 BD1 (unknown origin) assessed as dissociation constant by biolayer interferometry analysis
[5] = target: T1, Bromodomain-containing protein 4; assay: Binding affinity to His-tagged biotinylated BRD4 BD1 (unknown origin) assessed as binding constant (Kon) by biolayer interferometry analysis
[6] = target: T1, Bromodomain-containing protein 4; assay: Binding affinity to His-tagged biotinylated BRD4 BD1 (unknown origin) assessed as dissociation rate constant by biolayer interferometry analysis
RAW264.7 [7] = assay: Antiinflammatory activity in mouse RAW264.7 cells assessed as inhibition of LPS-induced NO production at 5 uM preincubated for 2 hrs followed by LPS stimulation and measured after 22 hrs by Griess reagent-based assay relative to control; assay type: functional; conditions: time 24 hrs
RAW264.7 [8] = assay: Antiinflammatory activity in mouse RAW264.7 cells assessed as inhibition of LPS-induced NO production at 10 uM preincubated for 2 hrs followed by LPS stimulation and measured after 22 hrs by Griess reagent-based assay relative to control; assay type: functional; conditions: time 24 hrs
[9] = target: T1, Bromodomain-containing protein 4; assay: Inhibition of BRD4 BD1 (57 to 168 residues) (unknown origin) transfected in Escherichia coli (DE3) using FAM-labeled JQ-1 as fluorescent substrate at 50 uM incubated for 30 mins by competitive fluorescence polarization method relative to control
[10] = target: T1, Bromodomain-containing protein 4; assay: Inhibition of BRD4 BD1 (57 to 168 residues) (unknown origin) transfected in Escherichia coli (DE3) using FAM-labeled JQ-1 as fluorescent substrate at 5 uM incubated for 30 mins by competitive fluorescence polarization method relative to control
[11] = target: T1, Bromodomain-containing protein 4; assay: Inhibition of BRD4 BD2 (352 to 457 residues) (unknown origin) transfected in Escherichia coli (DE3) using FAM-labeled JQ-1 as fluorescent substrate at 50 uM incubated for 30 mins by competitive fluorescence polarization method relative to control
[12] = target: T1, Bromodomain-containing protein 4; assay: Inhibition of BRD4 BD2 (352 to 457 residues) (unknown origin) transfected in Escherichia coli (DE3) using FAM-labeled JQ-1 as fluorescent substrate at 5 uM incubated for 30 mins by competitive fluorescence polarization method relative to control
Mus musculus [13] = assay: Protection against LPS-induced sepsis in C57BL/6 mouse model assessed as reduction in hypothermia at 10 mg/kg, ip qd administered for 3 days followed by LPS stimulation for 12 hrs and measured every 1 hr by digital thermometer; assay type: functional, organism-based; conditions: time 84.0 hrs
RAW264.7 [14] = assay: Antiinflammatory activity in mouse RAW264.7 cells assessed as reduction in LPS-induced IL-6 mRNA expression preincubated for 2 hrs followed by LPS stimulation and measured after 22 hrs by RT-qPCR analysis; assay type: functional, cell-based; conditions: dose 5-25 µM, time 24.0 hrs, DDE = dose-dependent effect
RAW264.7 [15] = assay: Antiinflammatory activity in mouse RAW264.7 cells assessed as reduction in LPS-induced IL-1beta mRNA expression preincubated for 2 hrs followed by LPS stimulation and measured after 22 hrs by RT-qPCR analysis; assay type: functional, cell-based; conditions: dose 5-25 µM, time 24.0 hrs, DDE = dose-dependent effect
RAW264.7 [16] = assay: Antiinflammatory activity in mouse RAW264.7 cells assessed as reduction in LPS-induced TNF-alpha mRNA expression preincubated for 2 hrs followed by LPS stimulation and measured after 22 hrs by RT-qPCR analysis; assay type: functional, cell-based; conditions: dose 5-25 µM, time 24.0 hrs, DDE = dose-dependent effect
RAW264.7 [17] = assay: Antiinflammatory activity in mouse RAW264.7 cells assessed as reduction in LPS-induced IL-6 level at 5 to 10 uM preincubated for 2 hrs followed by LPS stimulation and measured after 22 hrs by ELISA; assay type: functional, cell-based; conditions: dose 5-10 µM, time 24.0 hrs
RAW264.7 [18] = assay: Antiinflammatory activity in mouse RAW264.7 cells assessed as reduction in LPS-induced TNF-alpha level at 5 to 10 uM preincubated for 2 hrs followed by LPS stimulation and measured after 22 hrs by ELISA; assay type: functional, cell-based; conditions: dose 5-10 µM, time 24.0 hrs
Mus musculus [19] = assay: Protection against LPS-induced sepsis in C57BL/6 mouse model assessed as improvement in orbital movement at 30 mg/kg, ip qd administered for 3 days followed by LPS stimulation; assay type: functional, organism-based; conditions: time 3.0 day
Mus musculus [20] = assay: Protection against LPS-induced sepsis in C57BL/6 mouse model assessed as reduction in white secretion from eyes at 30 mg/kg, ip qd administered for 3 days followed by LPS stimulation; assay type: functional, organism-based; conditions: time 3.0 day
Mus musculus [21] = assay: Protection against LPS-induced sepsis in C57BL/6 mouse model assessed as improvement in mobility at 30 mg/kg, ip qd administered for 3 days followed by LPS stimulation; assay type: functional, organism-based; conditions: time 3.0 day
Mus musculus [22] = assay: Protection against LPS-induced sepsis in C57BL/6 mouse model assessed as increase in survival rate at 15 mg/kg, ip qd administered for 3 days followed by LPS stimulation and measured every 2 hrs for 120 hrs (reference value: 10%); assay type: functional
Mus musculus [23] = assay: Protection against LPS-induced sepsis in C57BL/6 mouse model assessed as increase in survival rate at 30 mg/kg, ip qd administered for 3 days followed by LPS stimulation and measured every 2 hrs for 120 hrs (reference value: 10%); assay type: functional
Mus musculus [24] = assay: Protection against LPS-induced sepsis in C57BL/6 mouse model assessed as reduction in hypothermia administered intraperitoneally daily for 3 days followed by LPS stimulation for 12 hrs and measured every 1 hr by digital thermometer; assay type: functional, organism-based; conditions: dose lower […], dose upper 30.0 mg/kg, route ip, time 84.0 hrs, DDE = dose-dependent effect
Mus musculus [25] = assay: Antiinflammatory activity against LPS-induced sepsis in C57BL/6 mouse model assessed as reduction in IL-6 level at 15 mg/kg, ip qd administered for 3 days followed by LPS stimulation and measured after 12 hrs by ELISA; assay type: functional, organism-based; conditions: time 84.0 hrs
Mus musculus [26] = assay: Antiinflammatory activity against LPS-induced sepsis in C57BL/6 mouse model assessed as reduction in TNF-alpha level at 15 mg/kg, ip qd administered for 3 days followed by LPS stimulation and measured after 12 hrs by ELISA; assay type: functional, organism-based; conditions: time 84.0 hrs

SMILES | Ki [3] [µM] | inhibition at 5 µM (RAW264.7 [7]) [%] | inhibition at 10 µM (RAW264.7 [8]) [%] | inhibition [9] [%] | inhibition [10] [%] | inhibition [11] [%] | inhibition [12] [%] | further results
COc1cc(-c2nc(SCc3ccccc3Cl)[nH]c(=O)c2C#N)cc(OC)c1OC | 1.74 | 75.2 | 99.7 |  |  |  |  | inhibition [1]: 84.7%; inhibition [2]: 74.3%; Kd [4]: 0.756 µM; K [5]: 3.84 10^4/Ms; Kdiss [6]: 2.9 10^-2/s
Cc1cc2nc(SCC(=O)N(C)c3cccc(Cl)c3)[nH]c(=O)c2[nH]1 |  |  |  | 14.7 | 4.63 | 17.2 | 3.96 | 
Cc1sc2c(c1C)C(c1ccc(Cl)cc1)=N[C@@H](CC(=O)Nc1ccc(O)cc1)c1nnc(C)n1-2 [BIRABRESIB] |  | 93.4 | 99.9 |  |  |  |  | Activity (Mus musculus [13]): Active
Cc1cccc(OCc2occc2C(=O)N(C)Cc2cc(O)nc3ccccc23)c1 |  |  |  | 11.3 | 3.59 | 15.1 | 4.71 | 
COc1ccccc1NS(=O)(=O)c1cc(-c2n[nH]c(=O)c3ccccc23)ccc1C |  |  |  | 19 |  | 21.7 | 1.26 | 
COc1cccc(-c2cc(=O)[nH]c(N3CCN(c4ccccc4)CC3)n2)c1 |  |  |  | 39 | 1.56 | 41.7 | 11 | 
COc1ccc(CNC(=O)C2CCCN(c3nc4c(-c5ccc(C)cc5)csc4c(=O)[nH]3)C2)cc1 (stereo not drawn) |  |  |  | 21.9 | 2.1 | 29.7 | 3.8 | 
Oc1ccc(-c2[nH]c(-c3ccccc3O)nc2-c2ccccc2)cc1 |  |  |  | 53 | 11.8 | 17.2 | 3.96 | 
N#Cc1c(O)nc(SCc2ccccc2Cl)nc1-c1ccccc1 | 12.3 |  |  | 71.9 | 7.01 | 83.5 | 19.3 | inhibition [1]: 47%; inhibition [2]: 46.5%; Kd [4]: 184 µM; K [5]: 7.28 10^2/Ms; Kdiss [6]: 1.34 10^-1/s
COc1cc(-c2nc(SCc3ccccc3C)[nH]c(=O)c2C#N)cc(OC)c1OC | 0.83 | 74.2 | 99.8 |  |  |  |  | Activity (RAW264.7 [14]): Dde; Activity (RAW264.7 [15]): Dde; Activity (RAW264.7 [16]): Dde; Activity (RAW264.7 [17]): Active; Activity (RAW264.7 [18]): Active; Activity (Mus musculus [19]): Active; Activity (Mus musculus [20]): Active; Activity (Mus musculus [21]): Active; survival at 15 mg/kg (Mus musculus [22]): 50%; survival at 30 mg/kg (Mus musculus [23]): 80%; Activity (Mus musculus [24]): Dde; Activity (Mus musculus [25]): Active; Activity (Mus musculus [26]): Active
COc1cc(-c2nc(SCc3ccccc3[N+](=O)[O-])[nH]c(=O)c2C#N)cc(OC)c1OC | 0.79 | 29.3 | 32.4 |  |  |  |  | 
